Paper PMC6697720, “Saturation of acyl chains converts cardiolipin from an antagonist to an activator of Toll-like receptor-4” (Cellular and Molecular Life Sciences: CMLS, 2019)

Columns and labels:
human TLR4/MD2/CD14 = target: T1, human TLR4/MD2/CD14 (Homo sapiens, UniProt O00206+Q9Y6Y9); assay: Inhibition of LPS-induced NF-κB luciferase reporter in HEK293 cells transfected with human TLR4/MD2/CD14; assay type: cell-based; details: for inhibition of LPS-induced signaling (LPS dose-response, 0 to 1000 ng/mL), mode of action: 1 h CL pre-incubation
T1 construct: expressed in transfected cells; host or cells: HEK293 (ATCC CRL1573), transient transfection with jetPEI
T1 sequence (O00206 24-839): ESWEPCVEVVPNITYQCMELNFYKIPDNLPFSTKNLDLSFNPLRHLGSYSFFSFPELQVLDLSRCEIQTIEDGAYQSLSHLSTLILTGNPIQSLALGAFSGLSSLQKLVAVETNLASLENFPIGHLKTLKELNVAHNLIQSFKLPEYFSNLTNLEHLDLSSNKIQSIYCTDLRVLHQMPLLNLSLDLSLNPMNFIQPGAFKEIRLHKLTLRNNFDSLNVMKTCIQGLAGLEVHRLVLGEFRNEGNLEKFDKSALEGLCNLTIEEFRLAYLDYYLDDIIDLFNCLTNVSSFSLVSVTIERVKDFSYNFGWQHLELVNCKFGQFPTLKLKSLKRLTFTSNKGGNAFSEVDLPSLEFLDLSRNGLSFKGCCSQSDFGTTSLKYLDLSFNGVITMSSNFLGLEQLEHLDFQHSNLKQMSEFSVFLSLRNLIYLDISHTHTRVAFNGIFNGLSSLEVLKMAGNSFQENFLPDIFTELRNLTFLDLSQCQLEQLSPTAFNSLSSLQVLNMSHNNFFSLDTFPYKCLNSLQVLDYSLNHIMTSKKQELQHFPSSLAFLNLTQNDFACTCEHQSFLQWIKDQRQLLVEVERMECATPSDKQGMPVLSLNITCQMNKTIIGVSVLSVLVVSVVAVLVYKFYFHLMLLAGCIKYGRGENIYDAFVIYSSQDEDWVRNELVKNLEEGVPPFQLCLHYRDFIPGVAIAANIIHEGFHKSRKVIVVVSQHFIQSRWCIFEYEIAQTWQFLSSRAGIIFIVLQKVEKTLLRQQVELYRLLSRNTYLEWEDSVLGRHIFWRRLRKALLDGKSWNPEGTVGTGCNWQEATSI
T1 sequence (Q9Y6Y9 19-160): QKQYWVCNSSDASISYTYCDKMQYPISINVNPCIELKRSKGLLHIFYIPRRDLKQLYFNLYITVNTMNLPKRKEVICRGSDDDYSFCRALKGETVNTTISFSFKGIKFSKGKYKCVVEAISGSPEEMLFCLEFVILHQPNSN
Description: Cells were seeded at 4 × 10^4 cells/mL in 96-well plates (200 μL/well) and transiently transfected 4 days later. Expression vectors containing an NF-κB transcription reporter vector-encoding firefly luciferase (10 ng/well pNF-κB-luc from Clontech), and a constitutively active reporter vector-encoding Renilla luciferase (5 ng/well phRG-TK; Promega), together with empty vector (pcDNA3.1 from Invitrogen Cat. N. V79020) and cDNA encoding human membrane CD14 (3 ng/well) and human or murine TLR4 and MD2 (3 ng/well) were mixed with jetPEI (Polyplus transfection Cat.N. 101-10N) and incubated with cells according to the manufacturer’s instructions.
After treatment supernatants were discarded, cells were washed with PBS and lysed with passive lysis buffer (Promega Cat.N. E1941). Luciferase and Renilla activity on cell lysates were quantified on a BioTek Synergy HT microplate reader using home-made luciferase reagent (20 mM Tricine, 2.67 mM MgSO4·7H2O, 0.265 mM (MgCO3)4Mg(OH)2·5H2O, 0.1 mM EDTA, 33.3 mM DTT, 530 μM ATP, 270 μM Acetyl Coenzyme A (Lithium salt), 470 μM luciferin (Biosynth), pH 7.8, diluted two times in water before use), or coelenterazine (Biosynth) dissolved in ethanol at 1 mg/mL and diluted 500 times in PBS before use as previously described. Firefly and Renilla luciferase activity on cell lysates were normalized, and data were expressed as fold induction as compared to unstimulated conditions.
In contrast to C16:0 and C18:0, C14:0 CL acted as an agonist in murine but not human cells (Fig. 3), a property similar to that of the LPS variant lipid IVa. to establish whether C14:0, like lipid IVa, is a weak human TLR4 antagonist, we tested the ability of all saturated CLs to inhibit signaling induced by LPS over a range of concentrations. For each CL, cells transfected with human TLR4/MD2/CD14 were pre-incubated with medium alone or two different CL concentrations for 1 h, and then washed and incubated for 6 h with increasing amounts of LPS (from 0 to 1000 ng/mL). […] The dose–response curve of LPS was shifted to the right.
(§1) Fig. 6 C14:0 is a competitive human TLR4 antagonist. HEK293 cells were transfected with plasmids encoding hTLR4, hMD2, and hCD14 together with a luciferase reporter plasmid dependent on NF-κB activation and a constitutively active reporter vector-encoding renilla luciferase. Two days after transfection, cells were incubated for 1 h with medium alone or the indicated amount of CLs, then washed and incubated 6 h with increasing amount of LPS. Luciferase and renilla were then quantified in cell lysate, and normalized and reported here as fold induction as compared to control. Each bar represents the mean ± standard deviation of three biological replicates (n = 3). Graphs are representative of at least three independent experiments
as §1, with “7 Unsaturated cardiolipins are” for “6 C14:0 is a”, “antagonists.” for “antagonist.”, “CLs, and” for “CLs,”
To quantify and compare the potency of CLs as inhibitors, we determined IC50 values in HEK293 cells transfected with human TLR4/MD2/CD14, for each of the antagonists (Fig. 8 and Table 1). […]

RAW-Blue cells = assay: NF-κB activation (SEAP, Quanti-Blue) by CL or LPS in RAW-Blue cells; assay type: cell-based, murine; details: CL alone, overnight
Description: RAW-Blue™ cells were seeded the day before the experiment at 5 × 10^5 cells/mL in 48-well plates (500 μL/well).
These cells express a secreted embryonic alkaline phosphatase (SEAP) when NF-κB is activated. NF-κB activation was measured by measuring the alkaline phosphatase produced by RAW-Blue™ cells using the Quanti-Blue™ reagent (InvivoGen), according to the manufacturer’s instructions.
(§2) Fig. 3 Saturated but not unsaturated CLs have pro-inflammatory properties. a RAW-Blue™ cells were incubated overnight with the indicated amount of CL or LPS, supernatants were collected, and NF-κB activation quantified via Quanti-Blue™ test and reported here as fold induction as compared to control. Unpaired t test: differences with respect to the control (Ctrl) are not significant if p > 0.05 (no symbol); *p ≤ 0.0007. b Immortalized BMDM cells were incubated overnight with the indicated amount of CL or LPS; supernatants were collected and TNF-α quantified via ELISA assay. c, d Primary human monocytes were incubated overnight with the indicated amount of CL or LPS with or without the NLRP3 inhibitor MCC950, supernatants were collected, and TNF-α and IL-1β were quantified via ELISA assay. Graphs are representative of experiments from six different donors. Unpaired t test: differences with respect to the control (Ctrl) are not significant if p > 0.05 (no symbol); *p ≤ 0.021. Each bar represents the mean + standard deviation of three biological replicates (n = 3). Graphs are representative of at least three independent experiments

immortalized BMDMs = assay: TNF-α secretion in immortalized BMDMs (WT or TLR4-KO) incubated with CL or LPS; assay type: cell-based, murine; details: overnight; for TNF-α secretion: CL alone, immortalized BMDM
Description: Immortalized BMDM were seeded the day before the experiment at 5 × 10^5 cells/mL in 48-well plates (500 μL/well).
After stimulation, supernatants were collected, centrifuged, and assayed for cytokine secretion, while cells were assayed for viability.
TNF-α and IP-10 were quantified in cell supernatants using DuoSet ELISA kits from R&D Systems and human IL-1β using Instant ELISA™ Kit from Invitrogen, according to the manufacturer’s instructions. Absorbance was read with a BioTek Synergy HT Microplate Readers.
as §2
Fig. 4 Saturated CLs are TLR4 agonists. a HEK293 cells were transfected with plasmids encoding murine TLR4, MD2, and CD14 (mTLR4), human TLR4, MD2, and CD14 (hTLR4) or with empty pcDNA3.1 plasmid, MD2 and CD14 (w/o TLR) together with a luciferase reporter plasmid dependent on NF-κB activation and a constitutively active reporter vector-encoding renilla luciferase. Two days after transfection, cells were incubated for 6 h with medium alone (Ctrl) or the indicated amount of CLs or LPS. Luciferase and renilla were quantified in cell lysate, normalized and reported here as fold induction as compared to control. Unpaired t test: differences compared to the control are not significant if p > 0.05(no symbol); *p ≤ 0.005. b WT and TLR4-KO iBMDM cells were incubated overnight with medium (c), LPS or C14:0 CL. For each condition, mTNF-α was measured by ELISA assay. Unpaired t test: differences with respect to the control are not significant if p > 0.05(no symbol); *p ≤ 0.0001. Each bar represents the mean + standard deviation of three biological replicates (n = 3). Graphs are representative of at least three independent experiments

| Structure (SMILES) | inhibition of LPS-induced signaling (LPS dose-response, 0 to 1000 ng/mL), mode of action (human TLR4/MD2/CD14; washed, 6 h LPS) | inhibition of LPS-induced signaling (LPS dose-response, 0 to 1000 ng/mL), mode of action (human TLR4/MD2/CD14; washed, 6 h LPS, listed as C14:0) | IC50 (human TLR4/MD2/CD14; HEK293 hTLR4/hMD2/hCD14, 1 h CL, washed, 6 h LPS, Prism fit of Fig. 8 data) [µM] | IC50 (human TLR4/MD2/CD14; approx., HEK293 human TLR4/MD2/CD14) [µM] | NF-κB activation (RAW-Blue cells) | TNF-α secretion (immortalized BMDMs) | TNF-α secretion in WT iBMDMs (immortalized BMDMs; wild-type) |
| --- | --- | --- | --- | --- | --- | --- | --- |
| CCCCCCCCCCCCCC(=O)OC[C@H](COP(=O)(O)OCC(O)COP(=O)(O)OC[C@@H](COC(=O)CCCCCCCCCCCCC)OC(=O)CCCCCCCCCCCCC)OC(=O)CCCCCCCCCCCCC (stereo partly shown) [C14:0 CL] | competitive inhibitor | competitive TLR4 antagonists | ~325 | ~300 | induced | induced | induced |
| CCCCCCCCCCCCCCCCCC(=O)OC[C@H](COP(=O)(O)OCC(O)COP(=O)(O)OC[C@@H](COC(=O)CCCCCCCCCCCCCCCCC)OC(=O)CCCCCCCCCCCCCCCCC)OC(=O)CCCCCCCCCCCCCCCCC (stereo partly shown) [C18:0 CL] | did not inhibit | – | – | – | induced | induced | – |
